Results taken from US10543193B2, “Processes useful for the preparation of 1-[3-(4-bromo-2-methyl-2H-pyrazol-3-yl)-4-methoxy-phenyl]-3-(2,4-difluoro-phenyl)-urea and crystalline forms related thereto” (ARENA PHARMACEUTICALS, INC., priority 2008, dated 2020).
Entries after “also recorded” stand apart in the source; their conditions may differ.

Legend:
[1] = Effect of milling and compression upon APD125 Form I (PXRD); type: physicochemical
Protocol: Micronized APD125 Form I, was ground using a mortar and pestle, with samples withdrawn at 1-min, 5-min and 10-min time points for PXRD analyses to evaluate the impact of grinding upon the solid-state form of APD125 Form I. PXRD patterns were obtained pre- and post-milling. Additionally, micronized APD125 Form I, was compressed at 2 kp, 5 kp and 10 kp for 1 min per sample using a Carver press. The samples were then removed from the Carver press and lightly broken up using a mortar and pestle, prior to PXRD analysis to evaluate the impact of compression upon the solid-state form of APD125 Form I. PXRD patterns were obtained pre- and post-compression.
(§1) PXRD measurements were obtained using a Philips (PANalytical) X'Pert PRO theta/theta diffractometer (EQ 0233) equipped with an X'Celerator RTMS detector and utilizing copper Kα radiation, operating at 45 kV and 40 mA. The instrument radius was 239.5 mm, the mask filter was 20 mm, the soller slit was 0.04 radians, and a nickel filter and sample spinning were used during data acquisition. The application and instrument control software used were X'Pert Data Collector®, version 2.0c and XPERT-PRO®, version 1.6, respectively. The samples were scanned from 5° to 40°2θ in continuous mode, using a step size of 0.0167°2θ.

[2] = Methyl cellulose optimization: Form I to Form II conversion in water pastes (PXRD); type: physicochemical
Protocol: In a small scintillation vial, 152.13 mg of micronized APD125 Form I, was spiked with sufficient deionized water to make a paste; the weight of the water added, 844.60 mg, was recorded, and the resulting mixture was stirred using a spatula to obtain a paste. The resulting sample, post-collection of an initial PXRD pattern, was capped, wrapped in tinfoil and stored at 40° C. until the next day, when a second PXRD pattern was obtained.
Using another small scintillation vial, 2.1183 g of micronized APD125 Form I, was mixed with 3.3619 g of a 0.5% w/v methyl cellulose to obtain a paste, which was immediately sampled for PXRD analysis to verify starting APD125 solid-state form, post-methyl cellulose addition. The remaining sample in the scintillation vial was split into two portions, placed in capped, parafilm-wrapped scintillation vials, which were then wrapped in tinfoil and stored at 40° C. and room temperature, respectively. PXRD patterns were collected at initial (t=0), 2-day and 16-day time points for each sample.
APD125 micronized Form I/PVP (1:8) blend, weighing 3.0081 g and containing 0.5% w/w methyl cellulose, was mixed with 3.71277 g of water to form a paste. After sampling the paste for an initial PXRD pattern, the remaining paste was split into two portions, placed in capped, parafilm-wrapped scintillation vials, which were then wrapped in tinfoil and stored at 40° C. and room temperature, respectively. PXRD patterns were collected at initial (t=0), 1-day, 7-day and 21-day time points.
For each blend, materials were dispensed (minus magnesium stearate) into a glass vial and blended for about 5 minutes. Magnesium stearate was added and the mixture was blended an additional 2 minutes. The final blend was compacted into standard round concave tablets ( 5/16″ diameter) with a total tablet weight of 200 mg and hardness of 10 kp using a Carver press. For each batch of tablets, several were crushed using a mortar and pestle to obtain a fine powder, from which a small sample was taken for PXRD analysis to confirm the initial APD125 polymorphic form. The remaining powder was weighed into a Qorpak® bottle, and ca. 50% w/w deionized water was added. The resulting mixture was stirred using a micro-spatula to wet the powder and form a paste. A Teflon® lid was screwed on tightly, and the prepared samples were stored in a 40° C. oven.
as §1, with “respectively. The API-based paste samples were” for “respectively. The samples were”, “size of 0.0167°2θ and a counting time of 40.005 seconds. The tablet granulation samples were scanned from 2° to 15°2θ in continuous mode, using a step size of 0.0167°2θ and a counting time of 1063.625 s.” for “size of 0.0167°2θ.”

Healthy Adults = assay: Phase 1 trials: waking EEG; type: in vivo, humans
insomnia patients = assay: Phase 2 trial: sleep maintenance; type: in vivo, humans
Source text: The data from the APD125 Phase 2 study are consistent with Phase 1 data and support further development of APD125 for the treatment of insomnia patients who have difficulty maintaining sleep.

normal volunteers = assay: Afternoon nap model of insomnia in normal volunteers; type: in vivo, humans
Source text: Sleep onset latency was not decreased by APD125. In the afternoon nap model, APD125 decreased microarousals, the number of sleep stage shifts and number of awakenings after sleep onset.

SMILES | PXRD pattern after compression ([1]; compressed at 2 kp, 5 kp and 10 kp vs uncompressed) | PXRD pattern after grinding ([1]; mortar and pestle, 1 minute, 5 minutes and 10 minutes, listed as micronized APD125 Form I) | conversion to Form II (PXRD) ([2]; aqueous 0.5% w/w methyl cellulose, 40° C., after 16 days) | PXRD pattern (FIG. 8 legend) ([2]; aqueous 0.5% w/w methyl cellulose, room temperature and 40° C., after 16 days) | time to conversion to Form II (PXRD) ([2]; paste in water alone at 40° C.) [h] | PXRD pattern (FIG. 9 legend) ([2]; paste in water alone at room temperature and 40° C. after 24 h) | conversion to Form II (PXRD) ([2]; suspended in aqueous 0.5% w/w methyl cellulose, room temperature, 21 days) | dose with maximal effects on waking EEG (Healthy Adults) [mg] | effects on waking EEG (Healthy Adults) | time of peak effects on waking EEG after dosing (Healthy Adults) [h] | next day cognitive effects (insomnia patients) | measurements of sleep maintenance (insomnia patients; compared to placebo) | Sleep onset latency (normal volunteers) | microarousals, number of sleep stage shifts and number of awakenings after sleep onset (normal volunteers) | slow wave sleep and associated parameters (normal volunteers; primarily during the early part of sleep)
COc1ccc(NC(=O)Nc2ccc(F)cc2F)cc1-c1c(Br)cnn1C [APD125 Form I, 1-[3-(4-bromo-2-methyl-2H-pyrazol-3-yl)-4-methoxy-phenyl]-3-(2,4-difluoro-phenyl)-urea] | consistent with APD125 Form I; also recorded: all substantially comprise Form I | No significant changes in the PXRD patterns; also recorded: all substantially comprise Form I | no evidence of conversion to Form II | substantially converted to Form II | ≤ 24 | substantially converted to Form II | did not convert to Form II |  |  |  |  |  |  |  | 
COc1ccc(NC(=O)Nc2ccc(F)cc2F)cc1-c1c(Br)cnn1C [Compound I, 1-[3-(4-bromo-2-methyl-2H-pyrazol-3-yl)-4-methoxy-phenyl]-3-(2,4-difluoro-phenyl)-urea] |  |  |  |  |  |  |  | 40 to 80 | vigilance-lowering effects | 2 to 4 | without any limiting next day cognitive effects | statistically significant improvements | not decreased | decreased | increased slow wave sleep and associated parameters in a dose-dependent manner
